In patent US9580449B2, “Compositions and methods for the production of pyrimidine and pyridine compounds with BTK inhibitory activity” (Merck Patent GmbH, priority 2011, dated 2017) one finds IC50 data, which are given here for 35 molecules.

pIC50: −log10 of the molar value.

For orientation: pIC50 means the negative decadic logarithm of the IC50, by convention in mol/L.

For this assay, the target named is full-length human BTK (Homo sapiens (Human), UniProt Q06187). The assay can be described thus: BTK IC50 enzyme assay (microfluidic off-chip mobility shift kinase assay). The assay is classed as biochemical. The note with it: incubated for 90 min. at 27 C; read-out: Time Dependent BTK Enzyme Assay IC50. As for the experimental part: The following describes a microfluidic, off-chip mobility shift kinase assay used to measure inherent potency of compounds against BTK enzyme. Compounds described by embodiments of the present invention were assayed using this protocol and the data from the same is recorded in Table 2 within the column labeled: “Time Dependent BTK Enzyme Assay IC50”.
Chain of full-length human BTK (Q06187 whole entry): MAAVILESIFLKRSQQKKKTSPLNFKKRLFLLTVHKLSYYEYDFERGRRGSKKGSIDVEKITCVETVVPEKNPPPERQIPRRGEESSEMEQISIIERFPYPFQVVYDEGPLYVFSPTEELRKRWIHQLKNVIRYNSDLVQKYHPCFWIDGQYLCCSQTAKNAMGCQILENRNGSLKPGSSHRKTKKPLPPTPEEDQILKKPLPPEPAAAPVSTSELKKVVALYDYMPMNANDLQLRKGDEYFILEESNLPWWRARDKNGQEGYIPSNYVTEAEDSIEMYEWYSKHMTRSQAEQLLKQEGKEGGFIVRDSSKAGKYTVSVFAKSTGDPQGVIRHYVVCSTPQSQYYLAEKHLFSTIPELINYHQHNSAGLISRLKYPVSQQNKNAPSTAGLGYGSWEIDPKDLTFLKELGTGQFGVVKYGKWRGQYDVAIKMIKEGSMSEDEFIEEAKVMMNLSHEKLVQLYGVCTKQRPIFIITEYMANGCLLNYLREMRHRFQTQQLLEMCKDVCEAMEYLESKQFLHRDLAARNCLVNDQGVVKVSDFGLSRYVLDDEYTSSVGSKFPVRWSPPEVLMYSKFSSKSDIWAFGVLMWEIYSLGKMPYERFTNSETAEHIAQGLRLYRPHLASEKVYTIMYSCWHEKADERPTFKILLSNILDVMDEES
Stopped reactions were monitored at −2 PSI, −3000 V/−700 V in a LabChip 3000 plate reader from Caliper Life Sciences, a PerkinElmer Company (Hopkinton, Mass.), and the activity was measured by off-chip mobility shift assay measuring the charge/mass difference between substrate and product resulting from peptide phosphorylation. IC50 and efficacy were determined by plotting log [Inhibitor] vs. % Activity in GeneData Screener (Basel, Switzerland). […] I<1 uM and II>1 uM.
With `Nc1ncnc(OC2CC3(C2)CN(C(=O)/C=C/CN2CC(F)C2)C3)c1-c1ccc(Oc2ccccc2)cc1` [A222, (E)-1-(6-((6-amino-5-(4-phenoxyphenyl)pyrimidin-4-yl)oxy)-2-azaspiro[3.3]heptan-2-yl)-4-(3-fluoroazetidin-1-yl)but-2-en-1-one], the pIC50 is above 7.00.
On to `CCC(=O)Nc1cccc(-c2c(Oc3ccc(Oc4ccccc4)cc3)ccnc2N)c1` [A310, N-(3-(2-amino-4-(4-phenoxyphenoxy)pyridin-3-yl)phenyl)propionamide], for which the pIC50 was below 6.00.
Turning to `CCC(=O)N1CCC(CNc2ncnc(N)c2-c2ccc(Oc3ccccc3)cc2)CC1` [A333, 1-(4-(((6-amino-5-(4-phenoxyphenyl)pyrimidin-4-yl)amino)methyl)piperidin-1-yl)propan-1-one], the pIC50 was above 6.00.
Take `C=CC(=O)N1CCC(CNc2ncnc(N)c2-c2ccc(F)cc2)CC1` [A77, 1-(4-(((6-amino-5-(4-fluorophenyl)pyrimidin-4-yl)amino)methyl)piperidin-1-yl)prop-2-en-1-one]: the pIC50 is below 6.00.
Then `C=CC(=O)Nc1cccc(Oc2ncnc(N)c2-c2ccc(OCc3ccc(F)cc3)cc2)c1` [A344, N-(3-{6-Amino-5-[4-(4-fluoro-benzyloxy)-phenyl]-pyrimidin-4-yloxy}-phenyl)-acrylamide], with above 7.00; and `CN(C)C/C=C/C(=O)N1C2CCC1CC(CNc1ncnc(N)c1-c1ccc(Oc3ccccc3)cc1)C2` (centres unmarked) [A71, (E)-1-(3-(((6-amino-5-(4-phenoxyphenyl)pyrimidin-4-yl)amino)methyl)-8-azabicyclo[3.2.1]octan-8-yl)-4-(dimethylamino)but-2-en-1-one], with above 6.00.
Consider `C=CC(=O)Nc1cccc(Oc2ncnc(N)c2-c2cnn(Cc3ccccc3C#N)c2)c1` [A194, N-(3-((6-amino-5-(1-(2-cyanobenzyl)-1H-pyrazol-4-yl)pyrimidin-4-yl)oxy)phenyl)acrylamide], for which the pIC50 is above 7.00.
As for `C=CC(=O)NC1CC(CNc2ncnc(N)c2-c2ccc(Oc3ccccc3)cc2)C1` (centres unmarked) [A182, N-(3-(((6-amino-5-(4-phenoxyphenyl)pyrimidin-4-yl)amino)methyl)cyclobutyl)acrylamide], the pIC50 was above 7.00.
Then `C#CC(=O)N1CCC(CNc2ncnc(N)c2-c2ccc(Oc3ccccc3)cc2)CC1` [A46, 1-(4-(((6-amino-5-(4-phenoxyphenyl)pyrimidin-4-yl)amino)methyl)piperidin-1-yl)prop-2-yn-1-one], with above 7.00; and `C=CC(=O)Nc1cccc(Oc2ncnc(N)c2-c2ccc(Oc3ccccn3)cc2)c1` [A162, N-(3-((6-amino-5-(4-(pyridin-2-yloxy)phenyl)pyrimidin-4-yl)oxy)phenyl)acrylamide], with above 7.00.
Then `Nc1ncnc(NCC2CCN(C(=O)C(O)CO)CC2)c1-c1ccc(Oc2ccccc2)cc1` (centres unmarked) [A56, 1-(4-(((6-amino-5-(4-phenoxyphenyl)pyrimidin-4-yl)amino)methyl)piperidin-1-yl)-2,3-dihydroxypropan-1-one], with below 6.00.
Turning to `C=CC(=O)N1CC(Nc2ncnc(N)c2-c2ccc(Oc3ccccc3)cc2)C1` [A185, 1-(3-((6-amino-5-(4-phenoxyphenyl)pyrimidin-4-yl)amino)azetidin-1-yl)prop-2-en-1-one], the pIC50 was above 7.00.
As to `C#CC(=O)N1C2CCC1CC(CNc1ncnc(N)c1-c1ccc(Oc3ccccc3)cc1)C2` (centres unmarked) [A68, 1-(3-(((6-amino-5-(4-phenoxyphenyl)pyrimidin-4-yl)amino)methyl)-8-azabicyclo[3.2.1]octan-8-yl)prop-2-yn-1-one], the pIC50 was above 7.00.
Consider `C=CC(=O)NCC1CCCN(c2ncnc(N)c2-c2ccc(Oc3ccccc3)cc2)C1` (centres unmarked) [A309, N-((1-(6-amino-5-(4-phenoxyphenyl)pyrimidin-4-yl)piperidin-3-yl)methyl)acrylamide], for which the pIC50 is below 6.00.
Then `C=CC(=O)NCC1CCN(c2ncnc(N)c2-c2ccc(Oc3ccccc3)cc2)CC1` [A7, N-((1-(6-amino-5-(4-phenoxyphenyl)pyrimidin-4-yl)piperidin-4-yl)methyl)acrylamide], with below 6.00; and `C=CC(=O)N1CCC=C(c2c(N)ncnc2Oc2ccc(Oc3ccccc3)cc2)C1` [A279, 1-(3-(4-amino-6-(4-phenoxyphenoxy)pyrimidin-5-yl)-5,6-dihydropyridin-1(2H)-yl)prop-2-en-1-one], with above 7.00; and `CN(C)C/C=C/C(=O)Nc1cccc(Oc2ccnc(N)c2-c2ccc(OCc3ccccc3)cc2)c1` [A152, (E)-N-(3-((2-amino-3-(4-(benzyloxy)phenyl)pyridin-4-yl)oxy)phenyl)-4-(dimethylamino)but-2-enamide], with above 6.00.
With `C=CC(=O)N1CCC(Nc2ncnc(N)c2-c2ccc(Oc3ccccc3)cc2)CC1` [A299, 1-(4-((6-amino-5-(4-phenoxyphenyl)pyrimidin-4-yl)amino)piperidin-1-yl)prop-2-en-1-one], the pIC50 was below 6.00.
Regarding `C=CC(=O)Nc1cncc(Oc2ncnc(N)c2-c2ccc(Oc3ccccc3)cc2)c1` [A60, N-(5-((6-amino-5-(4-phenoxyphenyl)pyrimidin-4-yl)oxy)pyridin-3-yl)acrylamide], the pIC50 was above 7.00.
As to `CN(C)C/C=C/C(=O)N1CCCC(Nc2ncnc(N)c2-c2ccc(Oc3ccccc3)cc2)C1` (centres unmarked) [A160, (E)-1-(3-((6-amino-5-(4-phenoxyphenyl)pyrimidin-4-yl)amino)piperidin-1-yl)-4-(dimethylamino)but-2-en-1-one], the pIC50 was above 6.00.
`C=CC(=O)N1CC[C@@H](Oc2ncnc(N)c2-c2ccc(Oc3ccccc3)cc2)C1` [A19, (R)-1-(3-((6-amino-5-(4-phenoxyphenyl)pyrimidin-4-yl)oxy)pyrrolidin-1-yl)prop-2-en-1-one]: the pIC50 is above 7.00.
Next, `C=CC(=O)Nc1cccc(Oc2ncnc(N)c2-c2ccc(OCc3ccccc3)cc2F)c1` [A349, N-{3-[6-Amino-5-(4-benzyloxy-2-fluoro-phenyl)-pyrimidin-4-yloxy]-phenyl}-acrylamide]: above 7.00; `C=CC(=O)Nc1cccc(Oc2ncnc(N)c2-c2ccc(Oc3ccccc3)nc2)c1` [A268, N-(3-((6-amino-5-(6-phenoxypyridin-3-yl)pyrimidin-4-yl)oxy)phenyl)acrylamide]: above 7.00; `CN(C)C/C=C/C(=O)N1CC[C@@H](Nc2ncnc(N)c2-c2ccc(Oc3ccccc3)cc2)C1` [A73, (R,E)-1-(3-((6-amino-5-(4-phenoxyphenyl)pyrimidin-4-yl)amino)pyrrolidin-1-yl)-4-(dimethylamino)but-2-en-1-one]: above 6.00.
As for `NCc1ccc(-c2cnccc2Oc2ccc(Oc3ccccc3)cc2)cc1` [A315, (4-(4-(4-phenoxyphenoxy)pyridin-3-yl)phenyl)methanamine], the pIC50 was below 6.00.
On to `COCCN(C)C/C=C/C(=O)N1CCC(CNc2ncnc(N)c2-c2ccc(Oc3ccccc3)cc2)CC1` [A11, (E)-1-(4-(((6-amino-5-(4-phenoxyphenyl)pyrimidin-4-yl)amino)methyl)piperidin-1-yl)-4-((2-methoxyethyl)(methyl)amino)but-2-en-1-one], for which the pIC50 was below 6.00.
Turning to `C#CC(=O)N1CC2(CC(Nc3ncnc(N)c3-c3cnn(Cc4ccccc4)c3)C2)C1` [A111, 1-(6-((6-amino-5-(1-benzyl-1H-pyrazol-4-yl)pyrimidin-4-yl)amino)-2-azaspiro[3.3]heptan-2-yl)prop-2-yn-1-one], the pIC50 was above 7.00.
Then `C=CC(=O)N1CCC(CNc2ncnc(N)c2-c2cc(OC)c(OC)c(OC)c2)CC1` [A83, 1-(4-(((6-amino-5-(3,4,5-trimethoxyphenyl)pyrimidin-4-yl)amino)methyl)piperidin-1-yl)prop-2-en-1-one], with above 6.00; and `CN(C)C/C=C/C(=O)Nc1ccc(Oc2ncnc(N)c2-c2ccc(Oc3ccccc3)cc2)cc1` [A290, (E)-N-(4-((6-amino-5-(4-phenoxyphenyl)pyrimidin-4-yl)oxy)phenyl)-4-(dimethylamino)but-2-enamide], with above 6.00.
Next, `Nc1ncnc(NCC2CCN(C(=O)/C=C/CN3CCCC3)CC2)c1-c1ccc(Oc2ccccc2)cc1` [A220, (E)-1-(4-(((6-amino-5-(4-phenoxyphenyl)pyrimidin-4-yl)amino)methyl)piperidin-1-yl)-4-(pyrrolidin-1-yl)but-2-en-1-one]: above 6.00.
Then `C=CC(=O)Nc1cccc(-c2c(Oc3ccc(Oc4ccccc4)cc3)ccnc2C(N)=O)c1` [A272, 3-(3-acrylamidophenyl)-4-(4-phenoxyphenoxy)picolinamide], with above 7.00; and `C=CC(=O)N1CC[C@@H](CNc2ncnc(N)c2-c2ccc(Oc3cccc(C(F)(F)F)c3)cc2)[C@H](O)C1` [A170, 1-((3S,4S)-4-(((6-amino-5-(4-(3-(trifluoromethyl)phenoxy)phenyl)pyrimidin-4-yl)amino)methyl)-3-hydroxypiperidin-1-yl)prop-2-en-1-one], with above 7.00.
Turning to `CC#CC(=O)N1CC[C@@H](CNc2ncnc(N)c2-c2ccc(Oc3ccccc3)cc2)[C@H](O)C1` [A215, 1-((3S,4S)-4-(((6-amino-5-(4-phenoxyphenyl)pyrimidin-4-yl)amino)methyl)-3-hydroxypiperidin-1-yl)but-2-yn-1-one], the pIC50 was above 7.00.
Turning to `C=CC(=O)N1C[C@H](F)C[C@@H](Nc2ncnc(N)c2-c2ccc(Oc3ccccc3)cc2)C1` [A205, 1-((3R,5R)-3-((6-amino-5-(4-phenoxyphenyl)pyrimidin-4-yl)amino)-5-fluoropiperidin-1-yl)prop-2-en-1-one], the pIC50 is above 7.00.
In the case of `C=CC(=O)Nc1ccc(Oc2ccncc2-c2ccc(Oc3ccccc3)cc2)cc1` [A297, N-(4-((3-(4-phenoxyphenyl)pyridin-4-yl)oxy)phenyl)acrylamide], the pIC50 was below 6.00.
